Source: PubChem BioAssay AID248 (DTP/NCI, 2004)
“And” between values parts separate entries of the source, which are not always exact repeats. Equal values may be shown once. Inconclusive results and toxic doses are left out.

System: L1210 leukemia ip in BDF1 mice, survival T/C
Assay: NCI In Vivo Anticancer Drug Screen. Data for tumor model L1210 Leukemia (intraperitoneal) in B6D2F1 (BDF1) mice
Settings: endpoint: mean survival time, higher = longer survival
Method in brief: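 Transplanted-tumor mice were given test agent; controls received vehicle only. Survival readings from the two groups were divided (treated over control).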

[1] = dose: 25.0 mg/kg/injection, schedule: Q04DX002 (ip), vehicle: Klucel (hydroxypropylcellulose) (HPC)
[2] = dose: 100.0 mg/kg/injection, schedule: Q01DX009 (ip), vehicle: saline with Tween-80
[3] = dose: 100.0 mg/kg/injection, schedule: Q04DX002 (ip), vehicle: saline
[4] = dose: 100.0 mg/kg/injection, schedule: Q04DX003 (ip), vehicle: saline with Tween-80
[5] = dose: 200.0 mg/kg/injection, schedule: Q01DX009 (ip), vehicle: saline with Tween-80
[6] = dose: 200.0 mg/kg/injection, schedule: Q04DX002 (ip), vehicle: saline
[7] = dose: 200.0 mg/kg/injection, schedule: Q04DX003 (ip), vehicle: saline with Tween-80
[8] = dose: 400.0 mg/kg/injection, schedule: Q01DX009 (ip), vehicle: saline with Tween-80
[9] = dose: 400.0 mg/kg/injection, schedule: Q04DX002 (ip), vehicle: saline
[10] = dose: 400.0 mg/kg/injection, schedule: Q04DX003 (ip), vehicle: saline with Tween-80

SMILES: C[S+]1C=Cc2ccccc2C1c1ccc(Cl)cc1 (configuration not stated)
- T/C [1]: 117 % of control

SMILES: CC(C)NC(=O)C1C2CC3OC(=O)C1C3C2 (configuration not stated)
- T/C (dose: 100.0 mg/kg/injection, schedule: Q04DX003 (ip), vehicle: saline): 98 % of control
- T/C (dose: 200.0 mg/kg/injection, schedule: Q04DX003 (ip), vehicle: saline): 98 % of control and 88 % of control
- T/C (dose: 400.0 mg/kg/injection, schedule: Q04DX003 (ip), vehicle: saline): 101 % of control and 95 % of control

SMILES: CCCCCCCCCCCCCCCCOc1c(Br)cc(Br)cc1Br
- T/C (dose: 100.0 mg/kg/injection, schedule: Q01DX001 (ip), vehicle: Klucel (hydroxypropylcellulose) (HPC)): 87 % of control
- T/C (dose: 200.0 mg/kg/injection, schedule: Q01DX001 (ip), vehicle: Klucel (hydroxypropylcellulose) (HPC)): 90 % of control
- T/C (dose: 400.0 mg/kg/injection, schedule: Q01DX001 (ip), vehicle: Klucel (hydroxypropylcellulose) (HPC)): 105 % of control

SMILES: COc1cc(CC2c3cccc(Oc4ccc(C)cc4)c3CCN2C)ccc1Oc1ccc(C)cc1 (configuration not stated)
- T/C (dose: 100.0 mg/kg/injection, schedule: Q04DX002 (ip), vehicle: other): 96 % of control
- T/C (dose: 200.0 mg/kg/injection, schedule: Q04DX002 (ip), vehicle: other): 100 % of control
- T/C (dose: 400.0 mg/kg/injection, schedule: Q04DX002 (ip), vehicle: other): 100 % of control

SMILES: O=S(=O)(c1ccccc1)N1C=CC=CC=C1
- T/C [1]: 102 % of control
- T/C (dose: 50.0 mg/kg/injection, schedule: Q04DX002 (ip), vehicle: Klucel (hydroxypropylcellulose) (HPC)): 102 % of control
- T/C (dose: 100.0 mg/kg/injection, schedule: Q04DX002 (ip), vehicle: Klucel (hydroxypropylcellulose) (HPC)): 105 % of control

SMILES: CNC(=O)Nc1ccc(C(=O)NCC(=O)O)cc1
- T/C [2]: 100 % of control and 105 % of control
- T/C [3]: 100 % of control and 92 % of control
- T/C [4]: 98 % of control
- T/C [5]: 93 % of control and 100 % of control
- T/C [6]: 100 % of control and 91 % of control
- T/C [7]: 91 % of control
- T/C [8]: 105 % of control and 110 % of control
- T/C [9]: 95 % of control and 96 % of control
- T/C [10]: 98 % of control

SMILES: [CH3][Sn]([Br])([Br])[CH2]CCCBr
- T/C (dose: 1.56 mg/kg/injection, schedule: Q01DX009 (ip), vehicle: saline): 103 % of control
- T/C (dose: 3.12 mg/kg/injection, schedule: Q01DX009 (ip), vehicle: saline): 112 % of control
- T/C (dose: 6.25 mg/kg/injection, schedule: Q01DX009 (ip), vehicle: saline): 100 % of control

SMILES: O=C1C2=C(C(=O)c3ccccc31)C(=O)C1CC=CCC1C2=O (configuration not stated)
- T/C (dose: 0.25 mg/kg/injection, schedule: Q04DX003 (ip), vehicle: saline with Tween-80): 102 % of control
- T/C (dose: 0.5 mg/kg/injection, schedule: Q04DX003 (ip), vehicle: saline with Tween-80): 104 % of control
- T/C (dose: 1.0 mg/kg/injection, schedule: Q04DX003 (ip), vehicle: saline with Tween-80): 98 % of control
- T/C (dose: 2.0 mg/kg/injection, schedule: Q04DX003 (ip), vehicle: saline with Tween-80): 96 % of control
- T/C (dose: 4.0 mg/kg/injection, schedule: Q04DX003 (ip), vehicle: saline with Tween-80): 110 % of control
- T/C (dose: 8.0 mg/kg/injection, schedule: Q04DX003 (ip), vehicle: saline with Tween-80): 100 % of control and 105 % of control
- T/C (dose: 16.0 mg/kg/injection, schedule: Q04DX003 (ip), vehicle: saline with Tween-80): 102 % of control and 103 % of control
- T/C (dose: 25.0 mg/kg/injection, schedule: Q01DX009 (ip), vehicle: saline with Tween-80): 106 % of control
- T/C (dose: 32.0 mg/kg/injection, schedule: Q04DX003 (ip), vehicle: saline with Tween-80): 103 % of control
- T/C (dose: 50.0 mg/kg/injection, schedule: Q01DX009 (ip), vehicle: saline with Tween-80): 106 % of control
- T/C (dose: 64.0 mg/kg/injection, schedule: Q04DX003 (ip), vehicle: saline with Tween-80): 97 % of control and 105 % of control
- T/C [2]: 110 % of control
- T/C (dose: 128.0 mg/kg/injection, schedule: Q04DX003 (ip), vehicle: saline with Tween-80): 105 % of control
- T/C [5]: 101 % of control
- T/C (dose: 256.0 mg/kg/injection, schedule: Q04DX003 (ip), vehicle: saline with Tween-80): 94 % of control

SMILES: CNC(=O)OCCOC(=O)NC
- T/C (dose: 100.0 mg/kg/injection, schedule: Q01DX001 (ip), vehicle: other): 98 % of control
- T/C (dose: 100.0 mg/kg/injection, schedule: Q01DX009 (ip), vehicle: other): 96 % of control
- T/C (dose: 100.0 mg/kg/injection, schedule: Q04DX003 (ip), vehicle: other): 102 % of control
- T/C (dose: 200.0 mg/kg/injection, schedule: Q01DX001 (ip), vehicle: other): 109 % of control
- T/C (dose: 200.0 mg/kg/injection, schedule: Q01DX009 (ip), vehicle: other): 102 % of control
- T/C (dose: 200.0 mg/kg/injection, schedule: Q04DX003 (ip), vehicle: other): 97 % of control
- T/C (dose: 400.0 mg/kg/injection, schedule: Q01DX001 (ip), vehicle: other): 98 % of control
- T/C (dose: 400.0 mg/kg/injection, schedule: Q01DX009 (ip), vehicle: other): 89 % of control
- T/C (dose: 400.0 mg/kg/injection, schedule: Q04DX003 (ip), vehicle: other): 111 % of control

SMILES: COc1ccccc1-n1c(=O)c(N=Nc2ccccc2)c(O)n(-c2ccccc2Cl)c1=S
- T/C (dose: 50.0 mg/kg/injection, schedule: Q04DX003 (ip), vehicle: saline with Tween-80): 94 % of control
- T/C [4]: 94 % of control

SMILES: CCc1ccccc1NC(=O)Nc1nccs1
- T/C (dose: 100.0 mg/kg/injection, schedule: Q01DX009 (ip), vehicle: Klucel (hydroxypropylcellulose) (HPC)): 116 % of control
- T/C (dose: 200.0 mg/kg/injection, schedule: Q01DX009 (ip), vehicle: Klucel (hydroxypropylcellulose) (HPC)): 110 % of control

SMILES: CCCc1cc(CN2CCOCC2)c(O)c(CN2CCOCC2)c1O
- T/C (dose: 100.0 mg/kg/injection, schedule: Q01DX001 (ip), vehicle: saline): 91 % of control
- T/C (dose: 200.0 mg/kg/injection, schedule: Q01DX001 (ip), vehicle: saline): 93 % of control
- T/C (dose: 400.0 mg/kg/injection, schedule: Q01DX001 (ip), vehicle: saline): 95 % of control

SMILES: O=[N+]([O-])c1ccc(OC(=S)Oc2ccc([N+](=O)[O-])cc2)cc1
- T/C (dose: 50.0 mg/kg/injection, schedule: Q01DX001 (ip), vehicle: carboxymethylcellulose (CMC)): 103 % of control
- T/C (dose: 100.0 mg/kg/injection, schedule: Q01DX001 (ip), vehicle: carboxymethylcellulose (CMC)): 105 % of control
- T/C (dose: 200.0 mg/kg/injection, schedule: Q01DX001 (ip), vehicle: carboxymethylcellulose (CMC)): 97 % of control
- T/C (dose: 400.0 mg/kg/injection, schedule: Q01DX001 (ip), vehicle: carboxymethylcellulose (CMC)): 100 % of control

SMILES: c1ccc([P+](C[P+](c2ccccc2)(c2ccccc2)c2ccccc2)(c2ccccc2)c2ccccc2)cc1
- T/C (dose: 0.19 mg/kg/injection, schedule: Q01DX009 (ip), vehicle: Klucel (hydroxypropylcellulose) (HPC)): 98 % of control
- T/C (dose: 0.39 mg/kg/injection, schedule: Q01DX009 (ip), vehicle: Klucel (hydroxypropylcellulose) (HPC)): 175 % of control
- T/C (dose: 0.78 mg/kg/injection, schedule: Q01DX009 (ip), vehicle: Klucel (hydroxypropylcellulose) (HPC)): 102 % of control
- T/C (dose: 1.56 mg/kg/injection, schedule: Q01DX009 (ip), vehicle: Klucel (hydroxypropylcellulose) (HPC)): 97 % of control
- T/C (dose: 1.56 mg/kg/injection, schedule: Q04DX003 (ip), vehicle: Klucel (hydroxypropylcellulose) (HPC)): 93 % of control
- T/C (dose: 3.12 mg/kg/injection, schedule: Q01DX009 (ip), vehicle: Klucel (hydroxypropylcellulose) (HPC)): 97 % of control
- T/C (dose: 3.12 mg/kg/injection, schedule: Q04DX003 (ip), vehicle: Klucel (hydroxypropylcellulose) (HPC)): 92 % of control
- T/C (dose: 6.25 mg/kg/injection, schedule: Q04DX003 (ip), vehicle: Klucel (hydroxypropylcellulose) (HPC)): 90 % of control

SMILES: C[N+]1(C)C2C=CCC1CSC2 (configuration not stated)
- T/C (dose: 15.0 mg/kg/injection, schedule: Q01DX001 (ip), vehicle: saline): 110 % of control

SMILES: CCCCC(=O)NCC(=O)N1CCC(C(=O)NCCCCC(=O)OC)C1 (configuration not stated)
- T/C [3]: 96 % of control
- T/C [6]: 115 % of control
- T/C [9]: 104 % of control

SMILES: CC(=O)N(C)Nc1ccccc1
- T/C [2]: 116 % of control
- T/C [4]: 91 % of control
- T/C [5]: 97 % of control
- T/C [7]: 91 % of control
- T/C [8]: 90 % of control
- T/C [10]: 106 % of control

SMILES: NN(C(=O)c1ccc([N+](=O)[O-])cc1)C1CCCCC1
- T/C (dose: 100.0 mg/kg/injection, schedule: Q04DX003 (ip), vehicle: acetone): 96 % of control
- T/C (dose: 200.0 mg/kg/injection, schedule: Q04DX003 (ip), vehicle: acetone): 106 % of control
- T/C (dose: 400.0 mg/kg/injection, schedule: Q04DX003 (ip), vehicle: acetone): 93 % of control

SMILES: CCOC(=O)C(CSCSC)NC(=O)/C=C/c1cccnc1 (configuration not stated)
- T/C [2]: 101 % of control
- T/C [4]: 93 % of control
- T/C [5]: 98 % of control
- T/C [7]: 97 % of control
- T/C [8]: 90 % of control
- T/C [10]: 90 % of control
